According to patent US4914215A, “Aminopropyl thiophene compounds” (The United States of America as represented by the United …, priority 1989, dated 1990):

Tests used:
brain [1] = assay: Tissue distribution of 5-halothiophene-2-isopropylamines in Fisher rats; assay type: in vivo; settings: in words
Text: 5-HALOTHIOPHENE-2-ISOPROPYLAMINES
Mean Brian. % Dose/gm (Mean Brain:Blood)

lungs = settings: versus HIPDM; cited from earlier work
brain [2] = settings: five minutes after administration; versus HIPDM; cited from earlier work

In the case of `CC(N)Cc1ccc([82Br])s1` (stereo not shown) [Br-82, 2-(2-aminopropyl)-5-bromothiophene], the brain retention (brain [1]) is reported as “good brain uptake and retention” and the brain uptake (brain [1]) is reported as “good brain uptake”.

With `CC(N)Cc1ccc([125I])s1` (stereo not shown) [Compound I-125, 2-(2-aminopropyl)-5-radiohalothiophene] the brain retention (brain [1]) was “good retention”, the brain uptake (brain [1]) was “high brain uptake” and the brain-to-blood ratios (brain [1]) was “high brain-to-blood ratios”.

For `CC(C)NC(C)Cc1ccc(I)cc1` (stereo not shown) [IMP, N-isopropyl-p-iodoamphetamine], the “clearance of the lungs relative to HIPDM” value (lungs) is listed as “faster” and the “amount of activity in the brain relative to HIPDM” value (brain [2]) is listed as “almost twice”.
